Laboratory results from patent US4762706A, “Peptide antibodies and their use in detecting oncogene products” (priority 1984, dated 1988).

Biological target: T1, v-Ki-ras p21 protein (serine at position 12) (Kirsten murine sarcoma virus, UniProt P01117)
T1 construct: made in house; host or cells: E. coli (plasmid pINIII-ras, a gift; lac promoter, IPTG induction)
Assay: Inhibition by nucleotide of anti-p21ser antibody binding to p21 protein (immunoprecipitation under mild denaturation conditions)
Conditions: high concentrations (10 mM) of nucleotide
Text: In this example the antibody was used to immunoprecipitate a form of p21 protein which is known to contain serine at position 12. This protein is a E. coli expressing v-Ki-ras p21 protein (produced using a plasmid pINIII-ras which was constructed by and was a gift from M. Inouge of SUNY at Stony Brook, New York in which transcription was directed by the lac promoter--see Masui, Y. et al., in Experimental Manipulation of Gene Expression, M. Inogue, ed., Academic Press, N.Y., pp 15-32 (1983). Expression of this protein was induced by treatment of the cultures with 2 mM isopropylthiogalactoside (IPTG). Cell pellets were resuspended in 50 mM glucose, 25 mM Tris.HCl pH 8.0, 10 mM EDTA, 2 mg/ml lysozyme, and 0.01% aprotinin, and were then incubated for 30 minutes at 4° C. Triton X-100 was added to 1% concentration for 5 additional minutes. Following a 10-minute 15,000 xg spin, the supernatant was spun for an additional 2 hours at 150,000 xg to prepare the cleared lysate. One hundred-μl samples of the cleared cell lysate were incubated with 40 μCi ^32 P gamma-labeled guanosine triphosphate (GTP) for 30 minutes at 37° C. […] Immune complexes were washed with 0.5% NP40, 1M LiCl, 50 mM Tris.HCl, pH 8.0, 120 mM NaCl, and analyzed by SDS-PAGE. […]

T1 sequence (P01117 whole entry): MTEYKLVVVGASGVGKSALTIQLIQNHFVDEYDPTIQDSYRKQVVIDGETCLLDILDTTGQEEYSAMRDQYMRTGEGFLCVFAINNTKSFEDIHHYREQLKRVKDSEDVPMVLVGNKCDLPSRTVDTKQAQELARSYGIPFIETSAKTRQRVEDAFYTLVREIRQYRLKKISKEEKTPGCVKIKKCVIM

## Nc1nc2c(ncn2[C@@H]2O[C@H](COP(=O)(O)OP(=O)(O)OP(=O)(O)O)[C@@H](O)[C@H]2O)c(=O)[nH]1 [GTP, guanosine triphosphate]
  inhibition of the binding of anti-p21ser antibodies to p21 protein: substantially inhibit
